# Read-outs that look alike come from different tables or passages of the source.
# Key:
# phospho-STAT5 (Y694) [1] = test: Inhibition of kinase phosphorylation by Western Blot in MV-4-11; format: cell-based; conditions: Homo sapiens, MV4-11; MV-4-11 cells, 4 hour-incubation; read-out: pSTAT5 MV-4-11 IC50
# Protocol: (§1) Inhibition of kinase phosphorylation assay was performed by Western Blot using MV-4-11 and MOLM13 cell lines. Cells were plated in 24 well plates at 1 million cells per well and then treated with compounds at different concentrations, starting at 100 nM, 1:4 titration with DMSO as control. After 4 hour-incubation, cells were washed once with ice-cold PBS, and lysed in RIPA lysis buffer with protease and phosphatase inhibitors. The cell lysates were then sonicated and spun down, and 40 μg of proteins were separated by sodium dodecyl sulfate electrophoresis on a 4 to 12% Bis-Tris polyacrylamide gel and transferred onto nitrocellulose membranes using Bio-Rad Trans-Blot Turbo Transfer System (Bio-Rad). Blocking was performed using 3% BSA or 5% Non-fat dry milk (Fisher Scientific) in TBST (Tris-buffered saline containing 0.05% of Tween 20) (Bio-Rad Laboratories, Inc.). The membranes were incubated overnight with anti-phospho-FLT3 (Y589/Y591) (CST #60413), anti-phospho-STAT5 (Y694) (CST #4322), anti-Phospho-p44/42 MAPK (Erk1/2) (T202/Y204) (CST #9101), anti-Phospho-S6 Ribosomal Protein (S235/236) (CST #4858) and anti-β-Actin (CST #8457) each diluted 1000 times in 3% BSA in TBST. Membranes were washed with TBST and then incubated at room temperature for 1 hour with HRP-labeled anti-rabbit IgG polyclonal antibody (CST #7074) diluted 1000 times in 3% BSA. After TBST washing, blots were developed with a chemiluminescence system (SuperSignal West Femto Maximum Sensitivity Substrate, Pierce #34095). Luminescence was detected by LI-COR Odyssey M imaging system and luminescence intensity were quantified using Empiria Studio 2.2 software. Data was analyzed using GraphPad Prism 9 (GraphPad Software, San Diego, CA) to obtain IC50 values.
# [2] = system: Phospho-S6 Ribosomal Protein (S235/236); test: as above; format: cell-based; conditions: Homo sapiens, MV4-11; MV-4-11 cells, 4 hour-incubation; read-out: pS6 MV-4-11 IC50
# Protocol: as §1
# [3] = system: Phospho-p44/42 MAPK (Erk1/2) (T202/Y204); test: as above; format: cell-based; conditions: Homo sapiens, MV4-11; MV-4-11 cells, 4 hour-incubation; read-out: pERK MV-4-11 IC50
# Protocol: as §1
# phospho-STAT5 (Y694) [4] = test: Inhibition of kinase phosphorylation by Western Blot in MOLM-13; format: cell-based; conditions: Homo sapiens; MOLM-13 cells, 4 hour-incubation; read-out: pSTAT5 MOLM-13 IC50
# Protocol: as §1
# [5] = system: Phospho-S6 Ribosomal Protein (S235/236); test: as above; format: cell-based; conditions: Homo sapiens; MOLM-13 cells, 4 hour-incubation; read-out: pS6 MOLM-13 IC50
# Protocol: as §1
# [6] = system: Phospho-p44/42 MAPK (Erk1/2) (T202/Y204); test: as above; format: cell-based; conditions: Homo sapiens; MOLM-13 cells, 4 hour-incubation; read-out: pERK MOLM-13 IC50
# Protocol: as §1
# MV-4-11 cells = test: MV-4-11 cell proliferation assay (CellTiter-Glo 2.0); format: cell-based; conditions: MV-4-11, 384-well, 11-dose dilution series, read-out: IC50, inhibition of MV-4-11 cell proliferation
# Protocol: MV-4-11 cell line was purchased from ATCC and maintained in RPMI medium supplemented with 10% fetal bovine serum and 100 U/mL of penicillin/streptomycin. One thousand MV-4-11 cells/50 μl per well were seeded in white 384-well plate, followed by treatment with indicated compounds in a 11-dose dilution series. Cell proliferation was measured using CellTiter-Glo 2.0 luciferase-based ATP detection assay (Promega, Madison, WI) following the manufacturer's protocol. Plates were then read on a TECAN Sparks multimode microplate reader. Data was analyzed using GraphPad Prism 9 (GraphPad Software, San Diego, CA) to obtain IC50 values.
# PIM3 = PIM3 (Homo sapiens (Human), UniProt Q86V86); test: HotSpot radiometric kinase assay (Reaction Biology); format: biochemical
# Protocol: (§2) Briefly, specific kinase/substrate pairs along with required cofactors were prepared in reaction buffer; 20 mM Hepes pH 7.5, 10 mM MgCl2, 1 mM EGTA, 0.02% Brij35, 0.02 mg/ml BSA, 0.1 mM Na3VO4, 2 mM DTT, 1% DMSO. Compounds were delivered into the reaction, followed ˜20 minutes later by addition of a mixture of ATP (Sigma, St. Louis MO) and ^33P ATP (Perkin Elmer, Waltham MA) to a final concentration of […]. Reactions were carried out at room temperature for 120 min, followed by spotting of the reactions onto P81 ion exchange filter paper (Whatman Inc., Piscataway, NJ). Unbound phosphate was removed by extensive washing of filters in 0.75% phosphoric acid. […] IC50 values and curve fits were obtained using Prism (GraphPad Software).
# PIM2 = PIM2 (Homo sapiens (Human), UniProt Q9P1W9); test: as above; format: biochemical
# PIM2, sequence (Q9P1W9 whole entry): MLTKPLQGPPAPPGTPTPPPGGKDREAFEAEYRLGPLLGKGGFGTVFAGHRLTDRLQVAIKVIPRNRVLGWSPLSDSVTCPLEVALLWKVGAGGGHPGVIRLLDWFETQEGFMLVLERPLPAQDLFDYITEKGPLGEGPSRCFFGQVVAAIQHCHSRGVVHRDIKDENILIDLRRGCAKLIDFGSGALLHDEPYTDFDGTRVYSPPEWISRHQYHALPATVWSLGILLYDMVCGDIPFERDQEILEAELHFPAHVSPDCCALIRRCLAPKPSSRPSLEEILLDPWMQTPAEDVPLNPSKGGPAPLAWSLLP
# Protocol: as §2
# PIM1 = PIM1 (Homo sapiens (Human), UniProt P11309); test: as above; format: biochemical
# PIM1, sequence (P11309 whole entry): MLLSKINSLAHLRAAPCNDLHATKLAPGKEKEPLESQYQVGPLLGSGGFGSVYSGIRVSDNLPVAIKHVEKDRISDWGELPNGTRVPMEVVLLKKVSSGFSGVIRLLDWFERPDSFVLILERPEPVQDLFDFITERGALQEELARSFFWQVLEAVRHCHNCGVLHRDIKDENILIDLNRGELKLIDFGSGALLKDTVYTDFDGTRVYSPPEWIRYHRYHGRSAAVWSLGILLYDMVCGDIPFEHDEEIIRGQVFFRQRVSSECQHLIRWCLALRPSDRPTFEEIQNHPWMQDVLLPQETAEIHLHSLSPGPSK
# Protocol: as §2
# FLT3-ITD [7] = molecular target: FLT3-ITD (Homo sapiens, UniProt P36888, ITD); test: as above; format: biochemical
# FLT3-ITD (Homo sapiens, UniProt P36888, ITD), sequence (P36888 whole entry, looked up, change not shown): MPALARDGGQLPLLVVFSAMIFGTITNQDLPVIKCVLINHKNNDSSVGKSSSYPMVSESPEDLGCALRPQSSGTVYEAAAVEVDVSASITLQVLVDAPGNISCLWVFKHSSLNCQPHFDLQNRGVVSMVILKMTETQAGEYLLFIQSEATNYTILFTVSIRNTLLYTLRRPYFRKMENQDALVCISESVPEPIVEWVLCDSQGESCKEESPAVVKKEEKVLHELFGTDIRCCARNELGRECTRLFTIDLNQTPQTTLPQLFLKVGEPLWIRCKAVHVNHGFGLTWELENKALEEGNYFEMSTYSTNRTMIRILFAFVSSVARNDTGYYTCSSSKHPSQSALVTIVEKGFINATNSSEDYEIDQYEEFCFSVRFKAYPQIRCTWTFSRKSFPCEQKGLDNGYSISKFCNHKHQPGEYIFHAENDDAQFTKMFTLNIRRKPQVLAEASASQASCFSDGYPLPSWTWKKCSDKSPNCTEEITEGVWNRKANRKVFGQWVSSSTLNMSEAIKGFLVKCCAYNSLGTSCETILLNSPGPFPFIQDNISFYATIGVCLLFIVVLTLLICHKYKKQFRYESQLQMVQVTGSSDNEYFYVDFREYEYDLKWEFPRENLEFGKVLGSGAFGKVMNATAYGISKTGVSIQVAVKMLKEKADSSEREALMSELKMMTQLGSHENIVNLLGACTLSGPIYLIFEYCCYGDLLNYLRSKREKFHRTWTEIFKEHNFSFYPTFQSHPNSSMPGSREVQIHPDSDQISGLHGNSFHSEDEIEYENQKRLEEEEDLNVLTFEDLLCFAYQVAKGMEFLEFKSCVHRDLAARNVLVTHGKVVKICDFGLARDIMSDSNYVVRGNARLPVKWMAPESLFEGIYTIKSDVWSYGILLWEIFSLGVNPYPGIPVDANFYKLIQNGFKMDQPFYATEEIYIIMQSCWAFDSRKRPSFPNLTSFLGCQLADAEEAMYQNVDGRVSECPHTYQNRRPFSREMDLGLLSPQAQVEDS
# FLT3 = FLT3 (Homo sapiens (Human), UniProt P36888); test: as above; format: biochemical
# FLT3, sequence (P36888 27-993): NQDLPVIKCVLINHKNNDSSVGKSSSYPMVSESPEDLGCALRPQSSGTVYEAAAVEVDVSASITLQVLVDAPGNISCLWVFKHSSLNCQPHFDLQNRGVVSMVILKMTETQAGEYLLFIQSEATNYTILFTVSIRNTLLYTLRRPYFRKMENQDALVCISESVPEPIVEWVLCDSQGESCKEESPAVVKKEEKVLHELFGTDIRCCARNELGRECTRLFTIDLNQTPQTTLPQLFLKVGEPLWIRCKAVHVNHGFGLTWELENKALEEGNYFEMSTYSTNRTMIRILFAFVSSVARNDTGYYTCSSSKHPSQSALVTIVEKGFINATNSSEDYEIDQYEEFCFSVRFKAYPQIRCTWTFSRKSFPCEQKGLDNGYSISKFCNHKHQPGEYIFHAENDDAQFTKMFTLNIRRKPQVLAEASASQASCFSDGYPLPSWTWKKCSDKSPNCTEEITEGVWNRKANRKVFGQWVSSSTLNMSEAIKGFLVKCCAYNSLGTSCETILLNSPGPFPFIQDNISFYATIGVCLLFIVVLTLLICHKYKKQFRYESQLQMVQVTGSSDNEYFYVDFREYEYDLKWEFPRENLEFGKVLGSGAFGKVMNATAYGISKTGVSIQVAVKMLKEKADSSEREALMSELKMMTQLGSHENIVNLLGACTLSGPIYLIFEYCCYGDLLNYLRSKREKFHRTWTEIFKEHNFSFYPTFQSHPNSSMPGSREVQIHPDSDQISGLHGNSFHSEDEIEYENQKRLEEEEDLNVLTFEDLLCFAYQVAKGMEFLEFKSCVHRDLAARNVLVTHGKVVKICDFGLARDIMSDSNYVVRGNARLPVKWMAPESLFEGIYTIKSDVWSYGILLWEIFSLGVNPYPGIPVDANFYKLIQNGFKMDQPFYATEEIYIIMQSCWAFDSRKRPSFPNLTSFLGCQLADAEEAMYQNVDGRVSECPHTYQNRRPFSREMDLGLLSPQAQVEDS
# FLT3-ITD [8] = molecular target: FLT3-ITD (Homo sapiens, UniProt P36888); test: as above; format: biochemical
# FLT3-ITD (Homo sapiens, UniProt P36888), sequence (P36888 whole entry, looked up, change not shown): as the sequence (P36888 whole entry, looked up, change not shown) above
# [9] = from C=Cc1nn(C2CCCCO2)c2ccc(-c3cnn(C)c3OCCN(C)C(=O)c3c(I)c(Br)nn3C)cc12; cc_pd bond; Pd(OAc)2, NaHCO3, TBAC; DMF; 54.0 mM; 140.0 °C; 1.5 h
"IC50 (MV-4-11 cells; Homo sapiens, MV4-11)",IC50 (PIM3),IC50 (PIM2),IC50 (PIM1),IC50 (FLT3),SMILES,further results
,,,,,"CCc1nc(C(N)=O)c(Nc2ccc(N3CCC(N4CCN(C)CC4)CC3)c(OC)c2)nc1NC1CCOCC1 [Gilteritinib, reference compound]",IC50 (phospho-STAT5 (Y694) [1]): 1.75 nM; IC50 [2]: 0.92 nM; IC50 [3]: 1.63 nM; IC50 (phospho-STAT5 (Y694) [4]): 2.23 nM; IC50 [5]: 7.91 nM; IC50 [6]: 1.31 nM
~1 nM,3.65 nM,145 nM,12.7 nM,0.347 nM,"Cc1c2c(nn1C)C(=O)N(C)CCOc1c(cnn1C)-c1ccc3[nH]nc(c3c1)/C=C/2 [compound 9, (17E)-8,12,15,16-tetramethyl-2,11,12,15-tetrahydro-8H-3,5-ethenotripyrazolo[3,4-f:3′,4′-j:4″,3″-n][1,4]oxazacyclopentadecin-13(10H)-one]",IC50 (FLT3-ITD [7]): 0.592 nM
,0.221 nM,14 nM,6.72 nM,0.247 nM,"CCc1c2c(nn1C)C(=O)N(C)CCOc1c(cnn1C)-c1ccc3[nH]nc(c3c1)/C=C/2 [compound 7, (17E)-16-ethyl-8,12,15-trimethyl-2,11,12,15-tetrahydro-8H-3,5-ethenotripyrazolo[3,4-f:3′,4′-j:4″,3″-n][1,4]oxazacyclopentadecin-13(10H)-one]",IC50 (MV-4-11 cells): 73.1 nM; IC50 (FLT3-ITD [8]): 0.537 nM
< 0.2 nM,0.0732 nM,8.17 nM,1.64 nM,,"Cc1nn(C)c2c1/C=C/c1n[nH]c3ccc(cc13)-c1cnn(C)c1OCCN(C)C2=O [compound 8, (17E)-8,12,14,16-tetramethyl-2,11,12,14-tetrahydro-8H-3,5-ethenotripyrazolo[3,4-f:3′,4′-j:4″,3″-n][1,4]oxazacyclopentadecin-13(10H)-one]",
,,,,,CN1CCOc2c(cnn2C)-c2ccc3c(c2)c(nn3C2CCCCO2)/C=C/c2c(Br)nn(C)c2C1=O (centres unmarked),"ring closure, yield of all isomers [9]: 94.8%"
